Converted amounts (≈) assume the structure as drawn. The source made the active and inactive calls. No cut-off for these calls is given here.
Assays:
Candida albicans [1] = experiment: Antifungal activity against Candida albicans isolate 1 assessed as reduction in fungal growth incubated for 48 hrs by broth microdilution method; type: functional
Candida albicans [2] = experiment: Antifungal activity against Candida albicans isolate 2 assessed as reduction in fungal growth incubated for 48 hrs by broth microdilution method; type: functional
Candida albicans [3] = experiment: Antifungal activity against Candida albicans isolate 3 assessed as reduction in fungal growth incubated for 48 hrs by broth microdilution method; type: functional
Candida albicans [4] = experiment: Antifungal activity against Candida albicans isolate 4 assessed as reduction in fungal growth incubated for 48 hrs by broth microdilution method; type: functional
Candida albicans [5] = experiment: Antifungal activity against Candida albicans isolate 5 assessed as reduction in fungal growth incubated for 48 hrs by broth microdilution method; type: functional
Candida albicans [6] = experiment: Fungicidal activity against Candida albicans isolate 1 assessed as fungal killing incubated for 48 hrs followed by plating on SD agar plate; type: functional; conditions: read-out: MFC99.9
Candida albicans [7] = experiment: Fungicidal activity against Candida albicans isolate 2 assessed as fungal killing incubated for 48 hrs followed by plating on SD agar plate; type: functional; conditions: read-out: MFC99.9
Candida albicans [8] = experiment: Fungicidal activity against Candida albicans isolate 3 assessed as fungal killing incubated for 48 hrs followed by plating on SD agar plate; type: functional; conditions: read-out: MFC99.9
Candida albicans [9] = experiment: Fungicidal activity against Candida albicans isolate 4 assessed as fungal killing incubated for 48 hrs followed by plating on SD agar plate; type: functional; conditions: read-out: MFC99.9
Candida albicans [10] = experiment: Fungicidal activity against Candida albicans isolate 5 assessed as fungal killing incubated for 48 hrs followed by plating on SD agar plate; type: functional; conditions: read-out: MFC99.9
Candida albicans [11] = experiment: Fungicidal activity against Candida albicans ATCC 10231 assessed as reduction in fungal load at 1 ug/ml incubated for 8 hrs followed by inoculation on SD agar plate for 48 hrs by time-kill assay; type: functional, organism-based; conditions: dose 1.0 µg/ml, time 56.0 hrs
[12] = Toxicity in Swiss mouse assessed as body weight at 1 mg/kg, ip measured after 24 hrs (reference value: 36.25 +/- 0.31 g); type: organism-based; conditions: in vivo
[13] = Toxicity in Swiss mouse assessed as relative lung weight at 1 mg/kg, ip measured after 24 hrs (reference value: 6.35 +/- 0.68 g); type: organism-based; conditions: in vivo
[14] = Toxicity in Swiss mouse assessed as relative kidney weight at 1 mg/kg, ip measured after 24 hrs (reference value: 14.91 +/- 0.99 g); type: organism-based; conditions: in vivo
[15] = Toxicity in Swiss mouse assessed as relative spleen weight at 1 mg/kg, ip measured after 24 hrs (reference value: 4.02 +/- 0.59 g); type: organism-based; conditions: in vivo
[16] = Toxicity in Swiss mouse assessed as relative heart weight at 1 mg/kg, ip measured after 24 hrs (reference value: 4.75 +/- 0.60 g); type: organism-based; conditions: in vivo
[17] = Toxicity in Swiss mouse assessed as relative liver weight at 1 mg/kg, ip measured after 24 hrs (reference value: 49.42 +/- 7.17 g); type: organism-based; conditions: in vivo
Candida albicans [18] = experiment: In vivo antifungal activity in Swiss mouse infected with Candida albicans ATCC 10231 assessed as reduction in fungal load in liver at 1 mg/kg, ip administered at 2, 24 and 48 hrs post-infection and measured per gm of organ at 24 hrs post-last dose (reference value: 1.80); type: functional; conditions: time 72.0 hrs
Candida albicans [19] = experiment: In vivo antifungal activity in Swiss mouse infected with Candida albicans ATCC 10231 assessed as reduction in fungal load in kidney at 1 mg/kg, ip administered at 2, 24 and 48 hrs post-infection and measured per gm of organ at 24 hrs post-last dose (reference value: 2.47); type: functional; conditions: time 72.0 hrs
Candida albicans [20] = experiment: In vivo antifungal activity in Swiss mouse infected with Candida albicans ATCC 10231 assessed as reduction in fungal load in spleen at 1 mg/kg, ip administered at 2, 24 and 48 hrs post-infection and measured per gm of organ at 24 hrs post-last dose (reference value: 2.34); type: functional; conditions: time 72.0 hrs
Candida albicans [21] = experiment: In vivo antifungal activity in Swiss mouse infected with Candida albicans ATCC 10231 assessed as reduction in fungal load in liver at 10 mg/kg, ip administered at 2, 24 and 48 hrs post-infection and measured per gm of organ at 24 hrs post-last dose (reference value: 1.80); type: functional; conditions: time 72 hrs
Candida albicans [22] = experiment: In vivo antifungal activity in Swiss mouse infected with Candida albicans ATCC 10231 assessed as reduction in fungal load in kidney at 10 mg/kg, ip administered at 2, 24 and 48 hrs post-infection and measured per gm of organ at 24 hrs post-last dose (reference value: 2.47); type: functional, organism-based; conditions: time 72.0 hrs
Candida albicans [23] = experiment: In vivo antifungal activity in Swiss mouse infected with Candida albicans ATCC 10231 assessed as reduction in fungal load in spleen at 10 mg/kg, ip administered at 2, 24 and 48 hrs post-infection and measured per gm of organ at 24 hrs post-last dose (reference value: 2.34); type: functional, organism-based; conditions: time 72.0 hrs

**Q.** What does the source list for `C[C@@H]1[C@H](O)[C@@H](C)/C=C/C=C/C=C/C=C/C=C/C=C/C=C/[C@H](O[C@@H]2O[C@H](C)[C@@H](O)[C@H](N)[C@@H]2O)C[C@@H]2O[C@](O)(C[C@@H](O)C[C@@H](O)[C@H](O)CC[C@@H](O)C[C@@H](O)CC(=O)O[C@H]1C)C[C@H](O)[C@H]2C(=O)O` [AMPHOTERICIN B]?
**A.** MIC (Candida albicans [1]): 39 µg/mL (≈ 42.2 µM); MIC (Candida albicans [2]): 39 µg/mL (≈ 42.2 µM); MIC (Candida albicans [3]): 39 µg/mL (≈ 42.2 µM); MIC (Candida albicans [4]): 156 µg/mL (≈ 169 µM); MIC (Candida albicans [5]): 39 µg/mL (≈ 42.2 µM); MFC (Candida albicans [6]): 78.1 µg/mL (≈ 84.5 µM); MFC (Candida albicans [7]): 312 µg/mL (≈ 338 µM); MFC (Candida albicans [8]): 39 µg/mL (≈ 42.2 µM); MFC (Candida albicans [9]): 625 µg/mL (≈ 676 µM); MFC (Candida albicans [10]): 78.1 µg/mL (≈ 84.5 µM); Activity (Candida albicans [11]): Active; Activity [12]: 31.12 g; Activity [13]: 6.51 g; Activity [14]: 15.56 g; Activity [15]: 4.14 g; Activity [16]: 5.94 g; Activity [17]: 49.34 g; Activity (Candida albicans [18]): Active; Activity (Candida albicans [19]): Active; Activity (Candida albicans [20]): Active; Activity (Candida albicans [21]): 1.51 log10CFU; Activity (Candida albicans [22]): Active; Activity (Candida albicans [23]): Active
